Laboratory results taken from patent US4200642A, “Spiro-oxazolidindiones” (Pfizer Inc., priority 1978, dated 1980).
“And” between values parts separate entries of the source, which are not always exact repeats. Identical values can stand only once.

Columns and labels:
aldose reductase = molecular target: T1, aldose reductase (Bos taurus, UniProt P16116); assay: inhibition of aldose reductase enzyme activity (partially purified enzyme from calf lens); assay type: biochemical; details: / indicates results of duplicate tests; for inhibition at 1 µM: 10^-6 M
T1 construct: partially purified aldose reductase enzyme obtained from calf lens; from tissue; host or cells: calf lens
Experimental: Spiro-oxazolidindiones prepared as described in the previous examples were tested for their ability to reduce or inhibit aldose reductase enzyme activity, following the procedure described in U.S. Pat. No. 3,821,383 and based on the procedure of Hayman et al., Journal of Biological Chemistry, 240, 877 (1965). The substrate employed was partially purified aldose reductase enzyme obtained from calf lens. The results obtained with each compound at a concentration of 10^-6 M are expressed as percent inhibition of enzyme activity.

[1] = system: sorbitol accumulation in the sciatic nerve of streptozotocinized (i.e., diabetic) rats; assay: inhibition of sorbitol accumulation in the sciatic nerve of streptozotocinized (diabetic) rats; assay type: in vivo; details: measured at 27 hours, vs untreated, values below 20 not always significant; for % Inhibition at mg/kg Dosage 1.5: 1.5 mg/kg orally at 4, 8 and 24 hours after streptozotocin
Experimental: Spiro-oxazolidindiones prepared as described in the above examples were tested for their ability to reduce or inhibit sorbitol accumulation in the sciatic nerve of streptozotocinized (i.e., diabetic) rats by the procedure essentially described in U.S. Pat. No. 3,821,383. In the present study, the amount of sorbitol accumulation in the sciatic nerves was measured 27 hours after induction of diabetes. The compounds were administered orally at the dose levels indicated at 4, 8 and 24 hours following the administration of streptozotocin. The results obtained in this manner are presented below in terms of percent inhibition afforded by the test compound as compared to the case where no compound was administered (i.e., the untreated animal where sorbitol levels normally rise from approximately […]. tissue to as high as 400 mM/g. tissue in the 27-hour test period). In this test values below 20 are not always experimentally and statistically significant.

inhibition at 1 µM (aldose reductase) [%] | % Inhibition at 10^-6 M (aldose reductase) | SMILES | % Inhibition at mg/kg Dosage 1.5 [1] [%] | % Inhibition at mg/kg Dosage 5 ([1]; 5 mg/kg orally at 4, 8 and 24 hours after streptozotocin) [%] | % Inhibition at mg/kg Dosage 15 ([1]; 15 mg/kg orally at 4, 8 and 24 hours after streptozotocin) [%]
96 |  | O=C1NC(=O)C2(CCOc3ccc(Cl)cc32)O1 (single isomer, unassigned; (-)) [Example 35, (-)-6-Chloro-spiro[4H-2,3-dihydrobenzopyran(4,5')oxazolidin]-2',4'-dione] | 41 | 67 | 88
86 | 68% | O=C1NC(=O)C2(CCOc3ccc(Cl)cc32)O1 (stereo not drawn) [Example 3, 6-Chloro-spiro[4H-2,3-dihydrobenzopyran(4,5')oxazolidin]-2',4'-dione] | 28 |  | 
65 |  | O=C1NC(=O)C2(CCOc3ccc(F)cc32)O1 (stereo not drawn) [Example 28, 6-Fluoro-spiro[4H-2,3-dihydrobenzopyran(4,5')oxazolidin]-2',4'-dione] | 8 |  | 
100 | 87% | O=C1NC(=O)C2(CCOc3ccc(Br)cc32)O1 (stereo not drawn) [Example 29, 6-Bromo-spiro[4H-2,3-dihydrobenzopyran(4,5')oxazolidin]-2',4'-dione] | 35 |  | 
42 |  | O=C1NC(=O)C2(CCSc3ccccc32)O1 (stereo not drawn) [Example 30, Spiro[4H-2,3-dihydrobenzothiopyran(4,5')oxazolidin]-2',4'-dione] |  |  | 
61 |  | O=C1NC(=O)C2(CCSc3ccc(F)cc32)O1 (stereo not drawn) [Example 31, 6-Fluoro-spiro[4H-2,3-dihydrobenzothiopyran(4,5')oxazolidin]-2',4'-dione] |  |  | 
100 |  | O=C1NC(=O)C2(CCOc3c(Cl)cc(Cl)cc32)O1 (stereo not drawn) [Example 32, 6,8-Dichloro-spiro[4H-2,3-dihydrobenzopyran(4,5')oxazolidin]-2',4'-dione] | 44 |  | 
81 | 99% | Cc1cc(Cl)cc2c1OCCC21OC(=O)NC1=O (stereo not drawn) [Example 33, 6-Chloro-8-methyl-spiro[4H-2,3-dihydrobenzopyran(4,5')oxazolidin]-2',4'-dione] | 33 |  | 
 | 70% and 100% | O=C1NC(=O)C2(CCSc3ccc(Cl)cc32)O1 (stereo not drawn) [Example 34, 6-Chloro-spiro[4H-2,3-dihydrobenzothiopyran(4,5')oxazolidin]-2',4'-dione] | 14 |  | 
